Test results taken from US9290453B2 (Merck Sharp & Dohme Corp., priority 2010, dated 2016).

target: T1, hCRTH2 (Homo sapiens, UniProt Q9Y5Y4); test: Radioligand Binding Assay B (scintillation proximity assay, [3H]-PGD2, HEK-hCRTH2 membranes); settings: Radioligand Binding Assay B (SPA), values in text
T1 construct: expressed in transfected cells; host or cells: HEK (human embryonic kidney) cells expressing hCRTH2
T1 sequence (Q9Y5Y4 1-395): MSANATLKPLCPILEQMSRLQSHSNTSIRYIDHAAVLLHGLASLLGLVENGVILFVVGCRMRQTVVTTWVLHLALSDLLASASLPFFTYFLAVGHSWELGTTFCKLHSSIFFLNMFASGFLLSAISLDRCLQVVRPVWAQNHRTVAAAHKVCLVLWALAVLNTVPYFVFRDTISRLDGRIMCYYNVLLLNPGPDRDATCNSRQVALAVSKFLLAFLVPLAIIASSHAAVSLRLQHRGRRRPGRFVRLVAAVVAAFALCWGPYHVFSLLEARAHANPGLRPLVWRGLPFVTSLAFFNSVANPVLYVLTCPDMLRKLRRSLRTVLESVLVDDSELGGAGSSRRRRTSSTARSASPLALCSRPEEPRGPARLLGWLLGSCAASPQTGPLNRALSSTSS
Protocol: Radioligand binding also was performed using scintillation proximity assay (SPA) technology in a similar way as described above in Radioligand Binding Assay A with minor modification. Assays were done at room temperature in 10 mM HEPES pH 7.4, 1 mM EDTA containing 2 mM MnCl2 and 16 nM [^3H]-PGD2 (PerkinElmer, Waltham, Mass.) (164 Ci mmol^−1), in a final volume of 0.05 mL. Competing ligands were diluted in dimethylsulfoxide (Me2SO) and added using very low volumes (50 nL). The reaction was initiated by the addition of a mixture of 3.52 μg of membrane protein prepared from a human embryonic kidney (HEK)-hCRTH2 cell line adhered to 140 ug of wheatgerm agglutinin SPA beads (PerkinElmer). Total and non-specific binding were determined in the absence and the presence of 10 μM of a CRTH2 antagonist, respectively. The reaction was routinely conducted for 60 min at room temperature followed by centrifugation for 5 minutes at 1000 RPM. The radioactivity was measured with a TopCountNXT (PerkinElmer). Results determined using the SPA-based assay were similar to those from the filtration binding assay.

Ki | Structure (SMILES)
7.4 nM | Cc1cccc(N2CCN(C(=O)c3ccc4nc(-c5ccc(Cl)cc5)c(CCCCC(=O)O)cc4c3)CC2)c1 [Compound 5BR, 5-(2-(4-chlorophenyl)-6-(4-(m-tolyl)piperazine-1-carbonyl)quinolin-3-yl)pentanoic acid]
11.6 nM | O=C(O)CCCCc1cc2cc(C(=O)N3CCN(c4ccccc4)CC3)ccc2nc1-c1ccc(F)cc1 [Compound 5AF, 5-(2-(4-fluorophenyl)-6-(4-phenylpiperazine-1-carbonyl)quinolin-3-yl)pentanoic acid]

same assay, conditions: Table B, Radioligand Binding Assay B (SPA), rated A-D

Structure (SMILES) | Ki
O=C(O)CCCCc1cc2cc(C(=O)N3CCC4(CC3)OCc3ccccc34)ccc2nc1-c1ccccc1 [Compound 1AV, 5-(2-phenyl-6-(3H-spiro[isobenzofuran-1,4′-piperidin]-1′-ylcarbonyl)quinolin-3-yl)pentanoic acid] | 2.1 to 20 nM
Cc1ccccc1N1CCN(C(=O)c2ccc3nc(-c4ccccc4)c(CCCCC(=O)O)cc3c2)CC1 [Compound 1BB, 5-(2-phenyl-6-(4-(o-tolyl)piperazine-1-carbonyl)quinolin-3-yl)pentanoic acid] | 2.1 to 20 nM
N#CC1(c2ccccc2)CCN(C(=O)c2ccc3nc(-c4ccccc4)c(CCCCC(=O)O)cc3c2)C1 (stereo not drawn) [Compound 1AR, 5-(6-(3-cyano-3-phenylpyrrolidine-1-carbonyl)-2-phenylquinolin-3-yl)pentanoic acid] | 2.1 to 20 nM
O=C(O)CCCCc1cc2cc(C(=O)N3CCN(c4ccccc4)CC3)ccc2nc1-c1ccccc1 [Compound 1Ai, 5-(2-phenyl-6-(4-phenylpiperazine-1-carbonyl)quinolin-3-yl)pentanoic acid] | 2.1 to 20 nM
CC1(C)CCC(NC(=O)c2ccc3nc(-c4ccccc4)c(CCCCC(=O)O)cc3c2)c2ccccc21 (stereo not drawn) [Compound 1AQ, 5-(6-((4,4-dimethyl-1,2,3,4-tetrahydronaphthalen-1-yl)carbamoyl)-2-phenylquinolin-3-yl)pentanoic acid] | 2.1 to 20 nM
O=C(O)CCCCc1cc2cc(C(=O)N3CCN(c4ccccc4Cl)CC3)ccc2nc1-c1ccccc1 [Compound 1BA, 5-(6-(4-(2-chlorophenyl)piperazine-1-carbonyl)-2-phenylquinolin-3-yl)pentanoic acid] | 2.1 to 20 nM
COc1ccc(N2CCN(C(=O)c3ccc4nc(-c5ccccc5)c(CCCCC(=O)O)cc4c3)CC2)cc1 [Compound 1BD, 5-(6-(4-(4-methoxyphenyl)piperazine-1-carbonyl)-2-phenylquinolin-3-yl)pentanoic acid] | 2.1 to 20 nM
CN(Cc1ccc(F)cc1)C(=O)c1ccc2nc(-c3ccccc3)c(CCCCC(=O)O)cc2c1 [Compound 1AK, 5-(6-((4-fluorobenzyl)(methyl)carbamoyl)-2-phenylquinolin-3-yl)pentanoic acid] | 20.1 to 200 nM
O=C(O)CCCCc1cc2cc(C(=O)N3CCC(n4c(=O)[nH]c5ccccc54)CC3)ccc2nc1-c1ccccc1 [Compound 1AU, 5-(6-(4-(2-oxo-2,3-dihydro-1H-benzo[d]imidazol-1-yl)piperidine-1-carbonyl)-2-phenylquinolin-3-yl)pentanoic acid] | 20.1 to 200 nM
O=C(O)CCCCc1cc2cc(C(=O)N[C@H]3COc4ccccc43)ccc2nc1-c1ccccc1 [Compound 1Ao, (R)-5-(6-((2,3-dihydrobenzofuran-3-yl)carbamoyl)-2-phenylquinolin-3-yl)pentanoic acid] | 20.1 to 200 nM

Continued, values first:

Ki | Structure (SMILES)
2.1 to 20 nM | O=C(O)CCCCc1cc2cc(C(=O)N3CCN(c4ccccc4C(F)(F)F)CC3)ccc2nc1-c1ccc(F)cc1 [Compound 5AR, 5-(2-(4-fluorophenyl)-6-(4-(2-(trifluoromethyl)phenyl)piperazine-1-carbonyl)quinolin-3-yl)pentanoic acid]
2.1 to 20 nM | O=C(O)CCCCc1cc2cc(C(=O)N[C@@H]3CCCc4cc(F)ccc43)ccc2nc1-c1ccc(Cl)cc1 [Compound 5AY, (R)-5-(2-(4-chlorophenyl)-6-((6-fluoro-1,2,3,4-tetrahydronaphthalen-1-yl)carbamoyl)quinolin-3-yl)pentanoic acid]
2.1 to 20 nM | O=C(O)CCCCc1cc2cc(C(=O)N3CCC4(CC3)OCc3ccccc34)ccc2nc1-c1ccc(F)cc1 [Compound 5AQ, 5-(2-(4-fluorophenyl)-6-(3H-spiro[isobenzofuran-1,4′-piperidin]-1′-ylcarbonyl)quinolin-3-yl)pentanoic acid]
2.1 to 20 nM | O=C(O)CCCCc1cc2cc(C(=O)N[C@@H]3CCOc4ccccc43)ccc2nc1-c1ccc(Cl)cc1 [Compound 5BA, (R)-5-(2-(4-chlorophenyl)-6-(chroman-4-ylcarbamoyl)quinolin-3-yl)pentanoic acid]
2.1 to 20 nM | Cc1cccc(N2CCN(C(=O)c3ccc4nc(-c5ccc(F)cc5)c(CCCCC(=O)O)cc4c3)CC2)c1 [Compound 5AU, 5-(2-(4-fluorophenyl)-6-(4-(m-tolyl)piperazine-1-carbonyl)quinolin-3-yl)pentanoic acid]
2.1 to 20 nM | COc1ccc(N2CCN(C(=O)c3ccc4nc(-c5ccc(F)cc5)c(CCCCC(=O)O)cc4c3)CC2)cc1 [Compound 5AV, 5-(2-(4-fluorophenyl)-6-(4-(4-methoxyphenyl)piperazine-1-carbonyl)quinolin-3-yl)pentanoic acid]
2.1 to 20 nM | O=C(O)CCCCc1cc2cc(C(=O)N3CCC4(CC3)OCc3ccccc34)ccc2nc1-c1ccc(Cl)cc1 [Compound 5Bo, 5-(2-(4-chlorophenyl)-6-(3H-spiro[isobenzofuran-1,4′-piperidin]-1′-ylcarbonyl)quinolin-3-yl)pentanoic acid]
2.1 to 20 nM | CC1(C)CCC(NC(=O)c2ccc3nc(-c4ccc(F)cc4)c(CCCCC(=O)O)cc3c2)c2ccccc21 (stereo not drawn) [Compound 5AK, 5-(6-((4,4-dimethyl-1,2,3,4-tetrahydronaphthalen-1-yl)carbamoyl)-2-(4-fluorophenyl)quinolin-3-yl)pentanoic acid]
2.1 to 20 nM | O=C(O)CCCCc1cc2cc(C(=O)N[C@@H]3CCCc4cc(F)ccc43)ccc2nc1-c1ccc(F)cc1 [Compound 5AE, (R)-5-(6-((6-fluoro-1,2,3,4-tetrahydronaphthalen-1-yl)carbamoyl)-2-(4-fluorophenyl)quinolin-3-yl)pentanoic acid]
2.1 to 20 nM | O=C(O)CCCCc1cc2cc(C(=O)N3CC(c4ccccc4)C3)ccc2nc1-c1ccc(F)cc1 [Compound 5AM, 5-(2-(4-fluorophenyl)-6-(3-phenylazetidine-1-carbonyl)quinolin-3-yl)pentanoic acid]
2.1 to 20 nM | Cc1ccccc1N1CCN(C(=O)c2ccc3nc(-c4ccc(Cl)cc4)c(CCCCC(=O)O)cc3c2)CC1 [Compound 5BQ, 5-(2-(4-chlorophenyl)-6-(4-(o-tolyl)piperazine-1-carbonyl)quinolin-3-yl)pentanoic acid]
2.1 to 20 nM | CC1(C)CC(NC(=O)c2ccc3nc(-c4ccc(F)cc4)c(CCCCC(=O)O)cc3c2)c2ccccc2O1 (stereo not drawn) [Compound 5AJ, 5-(6-((2,2-dimethylchroman-4-yl)carbamoyl)-2-(4-fluorophenyl)quinolin-3-yl)pentanoic acid]
2.1 to 20 nM | Cc1cccc(N2CCN(C(=O)c3ccc4nc(-c5ccc(Cl)cc5)c(CCCCC(=O)O)cc4c3)CC2)c1 [Compound 5BR, 5-(2-(4-chlorophenyl)-6-(4-(m-tolyl)piperazine-1-carbonyl)quinolin-3-yl)pentanoic acid]
2.1 to 20 nM | C[C@@H](NC(=O)c1ccc2nc(-c3ccc(Cl)cc3)c(CCCCC(=O)O)cc2c1)c1ccc(F)cc1 [Compound 5BC, (R)-5-(2-(4-chlorophenyl)-6-((1-(4-fluorophenyl)ethyl)carbamoyl)quinolin-3-yl)pentanoic acid]
2.1 to 20 nM | N#Cc1ccccc1N1CCN(C(=O)c2ccc3nc(-c4ccc(Cl)cc4)c(CCCCC(=O)O)cc3c2)CC1 [Compound 5BM, 5-(2-(4-chlorophenyl)-6-(4-(2-cyanophenyl)piperazine-1-carbonyl)quinolin-3-yl)pentanoic acid]
2.1 to 20 nM | O=C(O)CCCCc1cc2cc(C(=O)NCc3ccccc3)ccc2nc1-c1ccc(Cl)cc1 [Compound 5BL, 5-(6-(benzylcarbamoyl)-2-(4-chlorophenyl)quinolin-3-yl)pentanoic acid]
2.1 to 20 nM | O=C(O)CCCCc1cc2cc(C(=O)N3CC(c4cccc(F)c4)C3)ccc2nc1-c1ccc(Cl)cc1 [Compound 5BE, 5-(2-(4-chlorophenyl)-6-(3-(3-fluorophenyl)azetidine-1-carbonyl)quinolin-3-yl)pentanoic acid]
2.1 to 20 nM | O=C(O)CCCCc1cc2cc(C(=O)N3CC[C@@H](c4ccccc4)C3)ccc2nc1-c1ccc(Cl)cc1 [Compound 5BF, (S)-5-(2-(4-chlorophenyl)-6-(3-phenylpyrrolidine-1-carbonyl)quinolin-3-yl)pentanoic acid]
2.1 to 20 nM | O=C(O)CCCCc1cc2cc(C(=O)N3CCN(c4ccccc4)CC3)ccc2nc1-c1ccc(F)cc1 [Compound 5AF, 5-(2-(4-fluorophenyl)-6-(4-phenylpiperazine-1-carbonyl)quinolin-3-yl)pentanoic acid]
2.1 to 20 nM | CN(Cc1ccc(F)cc1)C(=O)c1ccc2nc(-c3ccc(F)cc3)c(CCCCC(=O)O)cc2c1 [Compound 5Ai, 5-(6-((4-fluorobenzyl)(methyl)carbamoyl)-2-(4-fluorophenyl)quinolin-3-yl)pentanoic acid]
2.1 to 20 nM | COc1ccc(N2CCN(C(=O)c3ccc4nc(-c5ccc(Cl)cc5)c(CCCCC(=O)O)cc4c3)CC2)cc1 [Compound 5BS, 5-(2-(4-chlorophenyl)-6-(4-(4-methoxyphenyl)piperazine-1-carbonyl)quinolin-3-yl)pentanoic acid]
